From US12583851B2, “Heteroaryl-substituted pyrazine derivatives as pesticides” (Elanco Animal Health GmbH, priority 2019, dated 2026)

What was measured:
Assay type in all cases: in vivo
[1] = test system: adult engorged female ticks (Rhipicephalus microplus); assay: Rhipicephalus (Boophilus) microplus injection test; conditions: 168 h, 4 μg/animal, egg deposition after 7 days, read-out: efficacy (infertile eggs)
Experimental: Rhipicephalus (Boophilus) microplus—Injection Test
(§1) Solvent: dimethyl sulfoxide
To produce a suitable preparation of active compound, 10 mg of active compound are dissolved in 0.5 mL solvent, and the concentrate is diluted with solvent to the desired concentration.
Five adult engorged female ticks (Rhipicephalus microplus) are injected with 1 μL compound solution into the abdomen. The ticks are transferred into replica plates and incubated in a climate chamber.
After 7 days egg deposition of fertile eggs is monitored. Eggs where fertility is not visible are stored in a climate chamber till hatching after about 42 days. An efficacy of 100% means all eggs are infertile; 0% means all eggs are fertile.

[2] = test system: adult unfed cat fleas (Ctenocephalides felis); assay: Ctenocephalides felis oral test; conditions: 48 h, 100 ppm in citrated cattle blood, after 2 days
Experimental: Ctenocephalides felis—Oral Test
as §1
To produce a suitable preparation of active compound, 10 mg of active compound are dissolved in 0.5 mL solvent, and the concentrate is diluted with citrated cattle blood to the desired concentration.
Approximately 20 adult unfed cat fleas (Ctenocephalides felis) are placed in a flea chamber whose top and bottom is covered with gauze. A chamber whose bottom is sealed with parafilm, is filled with the blood-compound solution and placed on top of the flea chamber, so that the fleas can suck the blood. The blood chamber is heated to 37° C. whereas the flea chamber is kept at room temperature.
After 2 days mortality in % is determined. 100% means all the fleas have been killed; 0% means none of the fleas have been killed.

[3] = test system: adult brown dog ticks (Rhipicephalus sanguineus); assay: Rhipicephalus sanguineus in-vitro contact test, adult brown dog ticks; conditions: 48 h, 5 μg/cm^2 (=500 g/ha), after 48 hours, read-out: efficacy (ticks dead or moribund)
Experimental: Rhipicephalus sanguineus—In-Vitro Contact Tests with Adult Brown Dog Ticks
9 mg compound is solved in 1 mL acetone and diluted with acetone to the desired concentration. […] the test solution is filled in 25 mL glass test tubes and homogeneously distributed on the inner walls by rotation and tilting on a shaking device (2 h at 30 rpm). With a compound concentration of 900 ppm, an inner surface of 44.7 cm^2 and a homogeneous distribution, a dose of 5 μg/cm^2 is achieved.
After the solvent has evaporated, each test tube is filled with 5-10 adult brown dog ticks (Rhipicephalus sanguineus), closed with a perforated lid and incubated in a lying position at room temperature and relative humidity. After 48 hours efficacy is determined. The ticks are patted on the ground of the tubes and are incubated on a heating plate at 45-50° C. for at most 5 minutes Immotile or uncoordinated moving ticks, which are not able to escape the heat by climbing upwards, are marked as dead or moribund.
An efficacy of 100% means all ticks are dead or moribund; 0% means no ticks are dead or moribund.

[4] = test system: Rhipicephalus (Boophilus) microplus larvae (strain Parkhurst, resistant against synthetic pyrethroids); assay: Rhipicephalus (Boophilus) microplus in-vitro contact test, larval cattle tick; conditions: after 48 hours, read-out: efficacy (larvae dead or moribund); for pest or weed control at 5 µg/cm2, 500 g/ha: 5 μg/cm^2 (=500 g/ha); for pest or weed control at 1 µg/cm2, 100 g/ha: 1 μg/cm^2 (=100 g/ha)
Method in brief: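 Acetone solutions were coated onto glass tube walls (900 ppm gives 5 μg/cm²); after drying, 20–50 pyrethroid-resistant Parkhurst larvae added and held at 27 °C, 85% RH. At 48 h, efficacy as % larvae dead or moribund, judged by loss of negative geotaxis.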

[5] = test system: larvae of the banded cucumber beetle (Diabrotica balteata); assay: Diabrotica balteata spray test; conditions: 168 h, after 7 days, read-out: efficacy (seedling growth); for pest or weed control at 32 µg/disc, 100 g/ha: 100 g/ha (=32 μg/well); for pest or weed control at 6.4 µg/disc, 20 g/ha: 20 g/ha (=6.4 μg/well)
Method in brief: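 Germinated wheat seedlings (5 per well, on agar) sprayed with compound in acetone/DMF with emulsifier-containing water, then infested with 10–20 Diabrotica balteata larvae. Efficacy (%) scored after 7 days from seedling growth: 100% = growth as untreated uninfested control, 0% = no seedlings grown.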

[6] = test system: fall armyworm larvae (Spodoptera frugiperda); assay: Spodoptera frugiperda spray test; conditions: 168 h, maize leaf sections, after 7 days
Method in brief: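 Compound dissolved in acetone/dimethylformamide, diluted in water containing 1000 ppm alkylarylpolyglycol ether emulsifier and sprayed onto maize leaf sections. Dried sections were infested with larvae; % mortality scored after 7 days (100% = all caterpillars killed, 0% = none).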

[7] = test system: adult cat fleas (Ctenocephalides felis); assay: Ctenocephalides felis in-vitro contact test, adult cat flea; conditions: after 48 hours, read-out: efficacy (fleas dead or moribund); for pest or weed control at 1 µg/cm2, 100 g/ha: 1 μg/cm^2 (=100 g/ha); for pest or weed control at 5 µg/cm2, 500 g/ha: 5 μg/cm^2 (=500 g/ha)
Experimental: Ctenocephalides felis—In-Vitro Contact Tests Adult Cat Flea
9 mg compound is solved in 1 ml acetone and diluted with acetone to the desired concentration. 250 μL of the test solution is filled in 25 mL glass test tubes and homogeneously distributed on the inner walls by rotation and tilting on a shaking device (2 h at 30 rpm). With a compound concentration of 900 ppm, an inner surface of 44.7 cm^2 and a homogeneous distribution, a dose of 5 μg/cm^2 is achieved.
After the solvent has evaporated, each test tube is filled with 5-10 adult cat fleas (Ctenocephalides felis), closed with a perforated lid and incubated in a lying position at room temperature and relative humidity. After 48 hours efficacy is determined. The fleas are patted on the ground of the tubes and are incubated on a heating plate at 45-50° C. for at most 5 minutes Immotile or uncoordinated moving fleas, which are not able to escape the heat by climbing upwards, are marked as dead or moribund.
An efficacy of 100% means all fleas are dead or moribund; 0% means no fleas are dead or moribund.

Compound | pest or weed control at 0.004 mg [1] [%] | mortality at 100 ppm [2] [%] | pest or weed control at 5 µg/cm2, 500 g/ha [3] [%] | pest or weed control at 5 µg/cm2, 500 g/ha [4] [%] | pest or weed control at 32 µg/disc, 100 g/ha [5] [%] | pest or weed control at 1 µg/cm2, 100 g/ha [4] [%] | mortality at 100 g/ha [6] [%] | pest or weed control at 6.4 µg/disc, 20 g/ha [5] [%] | pest or weed control at 1 µg/cm2, 100 g/ha [7] [%] | pest or weed control at 5 µg/cm2, 500 g/ha [7] [%]
CC(NC(=O)c1cncc(C(F)(F)F)c1)c1nccnc1-c1nccs1 (racemic) [Example I-2, (rac)-N-(1-(3-(Thiazol-2-yl)pyrazin-2-yl)ethyl)-5-(trifluoromethyl)nicotinamide] | 100 | 90 | 100 |  |  |  |  |  |  | 
CC(NC(=O)c1cncc(C(C)(C)C)c1)c1nccnc1-c1ncccn1 (racemic) [Example I-11, (rac)-5-(tert-Butyl)-N-(1-(3-(pyrimidin-2-yl)pyrazin-2-yl)ethyl)nicotinamide] |  | 90 |  | 100 |  |  |  |  |  | 
CC(NC(=O)c1cc(Br)cc(C#N)c1)c1nccnc1-c1ccccn1 (stereo not drawn) [Example I-16] |  | 100 | 80 |  | 100 |  |  |  |  | 
CC(NC(=O)c1cc(Cl)cc(C(F)(F)F)c1)c1nccnc1-c1ccccn1 (racemic) [Example I-1, (rac)-3-Chloro-N-{1-[3-(pyridin-2-yl)pyrazin-2-yl]ethyl}-5-(trifluoromethyl)benzamide] |  | 90 |  |  | 100 | 100 | 100 |  |  | 
CC(NC(=O)c1cc(C(F)(F)F)cc(C(F)(F)F)c1)c1nccnc1-c1ccccn1 (stereo not drawn) [Example I-13] | 80 | 90 |  | 100 | 80 | 100 | 100 | 100 |  | 
CC(NC(=O)c1cc(Cl)cc(Br)c1)c1nccnc1-c1ccccn1 (stereo not drawn) [Example I-14] | 80 | 100 |  | 80 | 80 | 90 |  | 80 |  | 
CC(NC(=O)c1cc(C#N)cc(C(F)(F)F)c1)c1nccnc1-c1ccc(Cl)cn1 (stereo not drawn) [Example I-25] | 80 | 90 |  |  | 100 |  | 100 | 100 |  | 
CC(NC(=O)c1cc(Cl)cc(C#N)c1)c1nccnc1-c1ccc(Cl)cn1 (stereo not drawn) [Example I-23] | 100 | 100 |  |  |  |  | 100 |  |  | 
CC(NC(=O)c1cc(C(F)(F)F)cc(C(F)(F)F)c1)c1nccnc1-c1ncc(C(=O)N2C[C@@H](C)O[C@@H](C)C2)s1 (mixture of isomers) [Example I-66, (rac)-N-[1-(3-{5-[(cis)-2,6-Dimethylmorpholine-4-carbonyl]-1,3-thiazol-2-yl}pyrazin-2-yl)ethyl]-3,5-bis(trifluoromethyl)benzamide] | 80 |  | 80 | 100 | 100 | 100 | 100 | 100 | 100 | 100
CC(NC(=O)c1cc(Cl)cc(C(F)(F)F)c1)c1nccnc1-c1ccc(Cl)cn1 (stereo not drawn) [Example I-24] | 100 | 100 |  | 90 | 100 | 90 | 100 | 100 |  | 
CC(NC(=O)c1cc(C(F)(F)F)cc(C(F)(F)F)c1)c1nccnc1-c1nccs1 (racemic) [Example I-5, (rac)-N-(1-(3-(Thiazol-2-yl)pyrazin-2-yl)ethyl)-3,5-bis(trifluoromethyl)benzamide] | 80 | 90 |  | 100 | 80 | 100 |  |  |  | 
CC(NC(=O)c1cc(C(F)(F)F)cc(C(F)(F)F)c1)c1nccnc1-c1ncc(C(=O)N(C)CC(F)(F)F)s1 (racemic) [Example I-65, (rac)-2-(3-{1-[3,5-Bis(trifluoromethyl)benzamido]ethyl}pyrazin-2-yl)-N-methyl-N-(2,2,2-trifluoroethyl)-1,3-thiazole-5-carboxamide] | 80 | 80 | 80 | 100 |  | 100 | 100 |  | 100 | 100
CC(NC(=O)c1cc(C#N)cc(C(F)(F)F)c1)c1nccnc1-c1ccccn1 (stereo not drawn) [Example I-15] | 80 | 100 |  | 80 | 100 | 80 |  |  |  | 
CC(NC(=O)c1cc(Cl)cc(C(F)(F)F)c1)c1nccnc1-c1nccs1 (racemic) [Example I-3, (rac)-3-Chloro-N-(1-(3-(thiazol-2-yl)pyrazin-2-yl)ethyl)-5-(trifluoromethyl)benzamide] | 100 | 90 |  |  | 100 |  |  | 80 |  | 
CC(NC(=O)c1cc(Cl)cc(OC(F)(F)F)c1)c1nccnc1-c1ccccn1 (stereo not drawn) [Example I-12] |  | 100 |  |  | 100 |  | 83 | 100 |  | 
